Measurements as given in ChEMBL document CHEMBL2429768, “Eco-friendly synthesis and antimicrobial activities of substituted-5-(1H-indol-3-yl)methylene)-2,2-dimethyl-1,3-dioxane-4,6-dione derivatives” (2013).
Converted amounts (≈) assume the structure as drawn.

Assays:
Assay type in all cases: functional
Staphylococcus aureus [1] = experiment: Antibacterial activity against Staphylococcus aureus ATCC 6538 at 300 ug/ml after 24 hrs by agar well diffusion method; settings: ATCC 6538, 24 h, read-out: DIZ
Klebsiella pneumoniae [2] = experiment: Antibacterial activity against Klebsiella pneumoniae at 500 ug/ml after 24 hrs by agar well diffusion method; settings: read-out: DIZ
Aspergillus niger [3] = experiment: Antifungal activity against Aspergillus niger at 200 ug/ml after 72 hrs by agar well diffusion method; settings: read-out: DIZ
Bacillus subtilis [4] = experiment: Antibacterial activity against Bacillus subtilis at 500 ug/ml after 24 hrs by agar well diffusion method; settings: read-out: DIZ
Staphylococcus aureus [5] = experiment: Antibacterial activity against Staphylococcus aureus ATCC 6538 after 24 hrs by agar well diffusion method; settings: ATCC 6538, 24 h
Staphylococcus aureus [6] = experiment: Antibacterial activity against Staphylococcus aureus ATCC 6538 at 100 ug/ml after 24 hrs by agar well diffusion method; settings: ATCC 6538, 24 h, read-out: DIZ
Rhizoctonia solani [7] = experiment: Antifungal activity against Rhizoctonia solani at 50 ug/ml after 72 hrs by agar well diffusion method; settings: read-out: DIZ
Aspergillus niger [8] = experiment: Antifungal activity against Aspergillus niger at 100 ug/ml after 72 hrs by agar well diffusion method; settings: read-out: DIZ
Aspergillus flavus [9] = experiment: Antifungal activity against Aspergillus flavus at 300 ug/ml after 72 hrs by agar well diffusion method; settings: read-out: DIZ
Klebsiella pneumoniae [10] = experiment: Antibacterial activity against Klebsiella pneumoniae at 200 ug/ml after 24 hrs by agar well diffusion method; settings: read-out: DIZ
Klebsiella pneumoniae [11] = experiment: Antibacterial activity against Klebsiella pneumoniae at 300 ug/ml after 24 hrs by agar well diffusion method; settings: read-out: DIZ
Escherichia coli [12] = experiment: Antibacterial activity against Escherichia coli ATCC 8739 at 500 ug/ml after 24 hrs by agar well diffusion method; settings: ATCC 8739, 24 h, read-out: DIZ
Bacillus subtilis [13] = experiment: Antibacterial activity against Bacillus subtilis at 50 ug/ml after 24 hrs by agar well diffusion method; settings: read-out: DIZ
Fusarium oxysporum [14] = experiment: Antifungal activity against Fusarium oxysporum after 72 hrs by agar well diffusion method
Rhizoctonia solani [15] = experiment: Antifungal activity against Rhizoctonia solani at 200 ug/ml after 72 hrs by agar well diffusion method; settings: read-out: DIZ
Escherichia coli [16] = experiment: Antibacterial activity against Escherichia coli ATCC 8739 at 200 ug/ml after 24 hrs by agar well diffusion method; settings: ATCC 8739, 24 h, read-out: DIZ
Aspergillus flavus [17] = experiment: Antifungal activity against Aspergillus flavus at 500 ug/ml after 72 hrs by agar well diffusion method; settings: read-out: DIZ
Aspergillus niger [18] = experiment: Antifungal activity against Aspergillus niger after 72 hrs by agar well diffusion method
Klebsiella pneumoniae [19] = experiment: Antibacterial activity against Klebsiella pneumoniae at 50 ug/ml after 24 hrs by agar well diffusion method; settings: read-out: DIZ
Rhizoctonia solani [20] = experiment: Antifungal activity against Rhizoctonia solani at 500 ug/ml after 72 hrs by agar well diffusion method; settings: read-out: DIZ
Rhizoctonia solani [21] = experiment: Antifungal activity against Rhizoctonia solani after 72 hrs by agar well diffusion method
Bacillus subtilis [22] = experiment: Antibacterial activity against Bacillus subtilis at 200 ug/ml after 24 hrs by agar well diffusion method; settings: read-out: DIZ
Fusarium oxysporum [23] = experiment: Antifungal activity against Fusarium oxysporum at 100 ug/ml after 72 hrs by agar well diffusion method; settings: read-out: DIZ
Staphylococcus aureus [24] = experiment: Antibacterial activity against Staphylococcus aureus ATCC 6538 at 200 ug/ml after 24 hrs by agar well diffusion method; settings: ATCC 6538, 24 h, read-out: DIZ
Escherichia coli [25] = experiment: Antibacterial activity against Escherichia coli ATCC 8739 at 50 ug/ml after 24 hrs by agar well diffusion method; settings: ATCC 8739, 24 h, read-out: DIZ
Aspergillus niger [26] = experiment: Antifungal activity against Aspergillus niger at 500 ug/ml after 72 hrs by agar well diffusion method; settings: read-out: DIZ
Staphylococcus aureus [27] = experiment: Antibacterial activity against Staphylococcus aureus ATCC 6538 at 50 ug/ml after 24 hrs by agar well diffusion method; settings: ATCC 6538, 24 h, read-out: DIZ
Fusarium oxysporum [28] = experiment: Antifungal activity against Fusarium oxysporum at 50 ug/ml after 72 hrs by agar well diffusion method; settings: read-out: DIZ
Fusarium oxysporum [29] = experiment: Antifungal activity against Fusarium oxysporum at 300 ug/ml after 72 hrs by agar well diffusion method; settings: read-out: DIZ
Fusarium oxysporum [30] = experiment: Antifungal activity against Fusarium oxysporum at 500 ug/ml after 72 hrs by agar well diffusion method; settings: read-out: DIZ
Bacillus subtilis [31] = experiment: Antibacterial activity against Bacillus subtilis at 300 ug/ml after 24 hrs by agar well diffusion method; settings: read-out: DIZ
Rhizoctonia solani [32] = experiment: Antifungal activity against Rhizoctonia solani at 300 ug/ml after 72 hrs by agar well diffusion method; settings: read-out: DIZ
Staphylococcus aureus [33] = experiment: Antibacterial activity against Staphylococcus aureus ATCC 6538 at 500 ug/ml after 24 hrs by agar well diffusion method; settings: ATCC 6538, 24 h, read-out: DIZ
Aspergillus flavus [34] = experiment: Antifungal activity against Aspergillus flavus at 100 ug/ml after 72 hrs by agar well diffusion method; settings: read-out: DIZ
Klebsiella pneumoniae [35] = experiment: Antibacterial activity against Klebsiella pneumoniae at 100 ug/ml after 24 hrs by agar well diffusion method; settings: read-out: DIZ
Bacillus subtilis [36] = experiment: Antibacterial activity against Bacillus subtilis after 24 hrs by agar well diffusion method
Aspergillus flavus [37] = experiment: Antifungal activity against Aspergillus flavus at 50 ug/ml after 72 hrs by agar well diffusion method; settings: read-out: DIZ
Bacillus subtilis [38] = experiment: Antibacterial activity against Bacillus subtilis at 100 ug/ml after 24 hrs by agar well diffusion method; settings: read-out: DIZ
Escherichia coli [39] = experiment: Antibacterial activity against Escherichia coli ATCC 8739 at 300 ug/ml after 24 hrs by agar well diffusion method; settings: ATCC 8739, 24 h, read-out: DIZ
Aspergillus flavus [40] = experiment: Antifungal activity against Aspergillus flavus at 200 ug/ml after 72 hrs by agar well diffusion method; settings: read-out: DIZ
Aspergillus niger [41] = experiment: Antifungal activity against Aspergillus niger at 300 ug/ml after 72 hrs by agar well diffusion method; settings: read-out: DIZ
Escherichia coli [42] = experiment: Antibacterial activity against Escherichia coli ATCC 8739 after 24 hrs by agar well diffusion method; settings: ATCC 8739, 24 h
Escherichia coli [43] = experiment: Antibacterial activity against Escherichia coli ATCC 8739 at 100 ug/ml after 24 hrs by agar well diffusion method; settings: ATCC 8739, 24 h, read-out: DIZ
Aspergillus flavus [44] = experiment: Antifungal activity against Aspergillus flavus after 72 hrs by agar well diffusion method
Rhizoctonia solani [45] = experiment: Antifungal activity against Rhizoctonia solani at 100 ug/ml after 72 hrs by agar well diffusion method; settings: read-out: DIZ
Klebsiella pneumoniae [46] = experiment: Antibacterial activity against Klebsiella pneumoniae after 24 hrs by agar well diffusion method
Fusarium oxysporum [47] = experiment: Antifungal activity against Fusarium oxysporum at 200 ug/ml after 72 hrs by agar well diffusion method; settings: read-out: DIZ
Aspergillus niger [48] = experiment: Antifungal activity against Aspergillus niger at 50 ug/ml after 72 hrs by agar well diffusion method; settings: read-out: DIZ

CC1(C)OC(=O)C(=Cc2c[nH]c3ccc([N+](=O)[O-])cc23)C(=O)O1
zone of inhibition at 300 µg/mL (Staphylococcus aureus [1]): 18 mm | zone of inhibition at 500 µg/mL (Klebsiella pneumoniae [2]): 34 mm | zone of inhibition at 200 µg/mL (Aspergillus niger [3]): 15 mm | zone of inhibition at 500 µg/mL (Bacillus subtilis [4]): 24 mm | MIC (Staphylococcus aureus [5]): 20 µg/mL (≈ 63.2 µM) | zone of inhibition at 100 µg/mL (Staphylococcus aureus [6]): 12 mm | zone of inhibition at 50 µg/mL (Rhizoctonia solani [7]): 10 mm | zone of inhibition at 100 µg/mL (Aspergillus niger [8]): 11 mm | zone of inhibition at 300 µg/mL (Aspergillus flavus [9]): 17 mm | zone of inhibition at 200 µg/mL (Klebsiella pneumoniae [10]): 20 mm | zone of inhibition at 300 µg/mL (Klebsiella pneumoniae [11]): 25 mm | zone of inhibition at 500 µg/mL (Escherichia coli [12]): 33 mm | zone of inhibition at 50 µg/mL (Bacillus subtilis [13]): 6 mm | MIC (Fusarium oxysporum [14]): 25 µg/mL (≈ 79 µM) | zone of inhibition at 200 µg/mL (Rhizoctonia solani [15]): 19 mm | zone of inhibition at 200 µg/mL (Escherichia coli [16]): 17 mm | zone of inhibition at 500 µg/mL (Aspergillus flavus [17]): 24 mm | MIC (Aspergillus niger [18]): 30 µg/mL (≈ 94.9 µM) | zone of inhibition at 50 µg/mL (Klebsiella pneumoniae [19]): 11 mm | zone of inhibition at 500 µg/mL (Rhizoctonia solani [20]): 32 mm | MIC (Rhizoctonia solani [21]): 25 µg/mL (≈ 79 µM) | zone of inhibition at 200 µg/mL (Bacillus subtilis [22]): 13 mm | zone of inhibition at 100 µg/mL (Fusarium oxysporum [23]): 14 mm | zone of inhibition at 200 µg/mL (Staphylococcus aureus [24]): 15 mm | zone of inhibition at 50 µg/mL (Escherichia coli [25]): 10 mm | zone of inhibition at 500 µg/mL (Aspergillus niger [26]): 26 mm | zone of inhibition at 50 µg/mL (Staphylococcus aureus [27]): 8 mm | zone of inhibition at 50 µg/mL (Fusarium oxysporum [28]): 10 mm | zone of inhibition at 300 µg/mL (Fusarium oxysporum [29]): 21 mm | zone of inhibition at 500 µg/mL (Fusarium oxysporum [30]): 31 mm | zone of inhibition at 300 µg/mL (Bacillus subtilis [31]): 16 mm | zone of inhibition at 300 µg/mL (Rhizoctonia solani [32]): 24 mm | zone of inhibition at 500 µg/mL (Staphylococcus aureus [33]): 28 mm | zone of inhibition at 100 µg/mL (Aspergillus flavus [34]): 10 mm | zone of inhibition at 100 µg/mL (Klebsiella pneumoniae [35]): 16 mm | MIC (Bacillus subtilis [36]): 20 µg/mL (≈ 63.2 µM) | zone of inhibition at 50 µg/mL (Aspergillus flavus [37]): 5 mm | zone of inhibition at 100 µg/mL (Bacillus subtilis [38]): 11 mm | zone of inhibition at 300 µg/mL (Escherichia coli [39]): 22 mm | zone of inhibition at 200 µg/mL (Aspergillus flavus [40]): 13 mm | zone of inhibition at 300 µg/mL (Aspergillus niger [41]): 19 mm | MIC (Escherichia coli [42]): 10 µg/mL (≈ 31.6 µM) | zone of inhibition at 100 µg/mL (Escherichia coli [43]): 15 mm | MIC (Aspergillus flavus [44]): 35 µg/mL (≈ 111 µM) | zone of inhibition at 100 µg/mL (Rhizoctonia solani [45]): 15 mm | MIC (Klebsiella pneumoniae [46]): 10 µg/mL (≈ 31.6 µM) | zone of inhibition at 200 µg/mL (Fusarium oxysporum [47]): 17 mm | zone of inhibition at 50 µg/mL (Aspergillus niger [48]): 7 mm
